Reference: PubChem BioAssay AID1259407 (Chemical Carcinogenesis Research Information System (CCRIS), 2018)
The source made the active and inactive calls. How the calls were made is not given here.

Tested on: CCRIS mutagenicity, Ames/micronucleus/aberration tests
Experiment: CCRIS mutagenicity studies
[1] = Test System: AMES SALMONELLA TYPHIMURIUM, Strain/Indicator: TA98, Metabolic Activation: NONE, Method: PREINCUBATION
[2] = Test System: AMES SALMONELLA TYPHIMURIUM, Strain/Indicator: TA100, Metabolic Activation: NONE, Method: PREINCUBATION
[3] = Test System: AMES SALMONELLA TYPHIMURIUM, Strain/Indicator: TA1535, Metabolic Activation: NONE, Method: PREINCUBATION
[4] = Test System: AMES SALMONELLA TYPHIMURIUM, Strain/Indicator: TA1537, Metabolic Activation: NONE, Method: PREINCUBATION
[5] = Test System: MOUSE LYMPHOMA, Strain/Indicator: L5178Y (TK+/TK-), Metabolic Activation: RAT, LIVER, S-9, AROCLOR 1254, Method: SUSPENSION/PLATE
[6] = Test System: AMES SALMONELLA TYPHIMURIUM, Strain/Indicator: TA98, Metabolic Activation: NONE, Method: STANDARD PLATE
[7] = Test System: AMES SALMONELLA TYPHIMURIUM, Strain/Indicator: TA100, Metabolic Activation: NONE, Method: STANDARD PLATE
[8] = Test System: MOUSE LYMPHOMA, Strain/Indicator: L5178Y (TK+/TK-), Metabolic Activation: NONE, Method: SUSPENSION/PLATE
[9] = Test System: AMES SALMONELLA TYPHIMURIUM, Strain/Indicator: TA1535, Metabolic Activation: NONE, Method: STANDARD PLATE

In the case of O=[N+]([O-])c1ccccc1SSC(F)=C(Cl)Cl, the mutagenic call (Test System: AMES SALMONELLA TYPHIMURIUM, Strain/Indicator: TA100(DNP6), Metabolic Activation: NONE, Method: PREINCUBATION) is reported as “active; positive” and the mutagenic call (Test System: AMES SALMONELLA TYPHIMURIUM, Strain/Indicator: TA100(NR), Metabolic Activation: NONE, Method: PREINCUBATION) is reported as “active; positive”.
C[O+](C)C.[Cl][Sb-]([Cl])([Cl])([Cl])([Cl])[Cl] was tested, and the mutagenic call [1] was “inactive; negative”, the mutagenic call (Test System: AMES SALMONELLA TYPHIMURIUM, Strain/Indicator: TA98, Metabolic Activation: RAT, LIVER, S-9, AROCLOR 1254 (10%), Method: PREINCUBATION) was “inactive; negative” and the mutagenic call [2] was “inactive; negative”. For the same compound, the mutagenic call (Test System: AMES SALMONELLA TYPHIMURIUM, Strain/Indicator: TA1535, Metabolic Activation: HAMSTER, LIVER, S-9, AROCLOR 1254 (10%), Method: PREINCUBATION) was “inactive; negative”, the mutagenic call [3] was “inactive; negative” and the mutagenic call (Test System: AMES SALMONELLA TYPHIMURIUM, Strain/Indicator: TA1535, Metabolic Activation: RAT, LIVER, S-9, AROCLOR 1254 (10%), Method: PREINCUBATION) was “inactive; negative”. The mutagenic call (Test System: AMES SALMONELLA TYPHIMURIUM, Strain/Indicator: TA1537, Metabolic Activation: HAMSTER, LIVER, S-9, AROCLOR 1254 (10%), Method: PREINCUBATION) was “inactive; negative”, the mutagenic call [4] was “inactive; negative” and the mutagenic call (Test System: AMES SALMONELLA TYPHIMURIUM, Strain/Indicator: TA1537, Metabolic Activation: RAT, LIVER, S-9, AROCLOR 1254 (10%), Method: PREINCUBATION) was “inactive; negative”. The mutagenic call [5] was “active; positive. reevaluation of results: positive” and the mutagenic call (Test System: Mouse lymphoma, Strain/Indicator: L5178Y (tk+/tk-), Metabolic Activation: None, Method: Suspension/plate) was “inactive; negative”.
With O=C(C(Cl)Cl)C(Cl)(Cl)Cl the mutagenic call [6] was “active; positive” and the mutagenic call [7] was “active; positive”.
In the case of CCc1c2ccccc2c(CC)c2c1ccc1ccccc12, the mutagenic call (Test System: AMES SALMONELLA TYPHIMURIUM, Strain/Indicator: TA98, Method: STANDARD PLATE) is reported as “inactive; negative”, the mutagenic call (Test System: AMES SALMONELLA TYPHIMURIUM, Strain/Indicator: TA100, Metabolic Activation: RAT, LIVER, S-9, PHENOBARBITAL, Method: STANDARD PLATE) is reported as “inactive; negative” and the mutagenic call (Test System: AMES SALMONELLA TYPHIMURIUM, Strain/Indicator: TA100, Method: STANDARD PLATE) is reported as “inactive; negative”.
For NCCc1ccc(O)cc1, the mutagenic call [8] was “active; positive” and the mutagenic call [5] was “active; positive”.
With O=S1(=O)OC(c2cc(Br)c(O)c(Br)c2)(c2cc(Br)c(O)c(Br)c2)c2c(Br)c(Br)c(Br)c(Br)c21 the mutagenic call [6] was “inactive; negative”, the mutagenic call (Test System: AMES SALMONELLA TYPHIMURIUM, Strain/Indicator: TA98, Metabolic Activation: RAT, LIVER, S-9, AROCLOR 1254, Method: STANDARD PLATE) was “inactive; negative” and the mutagenic call [7] was “inactive; negative”. For the same compound, the mutagenic call (Test System: AMES SALMONELLA TYPHIMURIUM, Strain/Indicator: TA100, Metabolic Activation: RAT, LIVER, S-9, AROCLOR 1254, Method: STANDARD PLATE) was “inactive; negative”, the mutagenic call [9] was “inactive; negative” and the mutagenic call (Test System: AMES SALMONELLA TYPHIMURIUM, Strain/Indicator: TA1535, Metabolic Activation: RAT, LIVER, S-9, AROCLOR 1254, Method: STANDARD PLATE) was “inactive; negative”. The mutagenic call (Test System: AMES SALMONELLA TYPHIMURIUM, Strain/Indicator: TA1537, Metabolic Activation: NONE, Method: STANDARD PLATE) was “inactive; negative”, the mutagenic call (Test System: AMES SALMONELLA TYPHIMURIUM, Strain/Indicator: TA1537, Metabolic Activation: RAT, LIVER, S-9, AROCLOR 1254, Method: STANDARD PLATE) was “inactive; negative” and the mutagenic call (Test System: AMES SALMONELLA TYPHIMURIUM, Strain/Indicator: TA1538, Metabolic Activation: NONE, Method: STANDARD PLATE) was “inactive; negative”. For the same compound, the mutagenic call (Test System: AMES SALMONELLA TYPHIMURIUM, Strain/Indicator: TA1538, Metabolic Activation: RAT, LIVER, S-9, AROCLOR 1254, Method: STANDARD PLATE) was “inactive; negative”, the mutagenic call [8] was “inactive; negative” and the mutagenic call [5] was “inactive; negative”.
O[C@@H]1C=Cc2c(ccc3c2sc2ccccc23)[C@H]1O was tested, and the mutagenic call (Test System: AMES SALMONELLA TYPHIMURIUM, Strain/Indicator: TA100, Metabolic Activation: RAT, LIVER, S-9, AROCLOR 1254, Method: PREINCUBATION) was “active; positive”.
With NC(=O)CNC(=O)N(CCCl)N=O the mutagenic call [9] was “active; positive”.
In the case of CCCCCCCCCCCCCCCC(=O)O, the mutagenic call [1] is reported as “inactive; negative”, the mutagenic call (Test System: AMES SALMONELLA TYPHIMURIUM, Strain/Indicator: TA98, Metabolic Activation: RAT LIVER S-9, PHENOBARBITAL AND BETA-NAPHTHOFLAVONE, Method: PREINCUBATION) is reported as “inactive; negative” and the mutagenic call [2] is reported as “inactive; negative”. The mutagenic call (Test System: AMES SALMONELLA TYPHIMURIUM, Strain/Indicator: TA100, Metabolic Activation: RAT LIVER S-9, PHENOBARBITAL AND BETA-NAPHTHOFLAVONE, Method: PREINCUBATION) was “inactive; negative”, the mutagenic call [3] was “inactive; negative” and the mutagenic call (Test System: AMES SALMONELLA TYPHIMURIUM, Strain/Indicator: TA1535, Metabolic Activation: RAT LIVER S-9, PHENOBARBITAL AND BETA-NAPHTHOFLAVONE, Method: PREINCUBATION) was “inactive; negative”. For the same compound, the mutagenic call [4] was “inactive; negative”, the mutagenic call (Test System: AMES SALMONELLA TYPHIMURIUM, Strain/Indicator: TA1537, Metabolic Activation: RAT LIVER S-9, PHENOBARBITAL AND BETA-NAPHTHOFLAVONE, Method: PREINCUBATION) was “inactive; negative” and the mutagenic call (Test System: E.COLI, Strain/Indicator: WP2UVRA/PKM101, Metabolic Activation: NONE, Method: PREINCUBATION) was “inactive; negative”. For the same compound, the mutagenic call (Test System: E.COLI, Strain/Indicator: WP2UVRA/PKM101, Metabolic Activation: RAT LIVER S-9, PHENOBARBITAL AND BETA-NAPHTHOFLAVONE, Method: PREINCUBATION) was “inactive; negative”.
In the case of Cc1c2ccccc2c(C)c2c3c(ccc12)C(=O)C(=O)C=C3, the mutagenic call (Test System: AMES SALMONELLA TYPHIMURIUM, Strain/Indicator: TA97A, Metabolic Activation: NONE, Method: PREINCUBATION) is reported as “inactive; negative”, the mutagenic call [1] is reported as “inactive; negative” and the mutagenic call [2] is reported as “inactive; negative”. For the same compound, the mutagenic call (Test System: AMES SALMONELLA TYPHIMURIUM, Strain/Indicator: TA102, Metabolic Activation: NONE, Method: PREINCUBATION) was “inactive; negative” and the mutagenic call (Test System: AMES SALMONELLA TYPHIMURIUM, Strain/Indicator: TA104, Metabolic Activation: NONE, Method: PREINCUBATION) was “inactive; negative”.
CN(C)/C=N/c1nnc(/C=C/c2ccc([N+](=O)[O-])o2)o1 was tested, and the mutagenic call (Test System: AMES SALMONELLA TYPHIMURIUM, Strain/Indicator: TA100, Metabolic Activation: RAT, LIVER, S-9, KC500 OR PHENOBARBITAL, Method: LIQUID SUSPENSION) was “active; positive”.
For COc1ccc2c(c1)C(=O)c1c(OC)c(OC)cc3ccnc-2c13, the mutagenic call (Test System: AMES SALMONELLA TYPHIMURIUM, Strain/Indicator: TA98, Metabolic Activation: RAT, LIVER, S-9, PHENOBARBITAL AND BETA-NAPHTHOFLAVONE, Method: PREINCUBATION) was “active; positive” and the mutagenic call (Test System: AMES SALMONELLA TYPHIMURIUM, Strain/Indicator: TA100, Metabolic Activation: RAT, LIVER, S-9, PHENOBARBITAL AND BETA-NAPHTHOFLAVONE, Method: PREINCUBATION) was “active; positive”.
In the case of COC1=CC(=O)O[C@@H](CCc2ccc3c(c2)OCO3)C1, the mutagenic call (Test System: Mouse lymphoma cells, Strain/Indicator: L5178Y ( tk+/tk-), Metabolic Activation: Human, Liver, S-9, Method: Suspension/plate) is reported as “inactive; negative”.
With Cc1ccc(C2CO2)cc1C (stereo unspecified) the mutagenic call (Test System: E. COLI, Strain/Indicator: WP2, Metabolic Activation: NONE, Method: STANDARD PLATE) was “active; positive” and the mutagenic call (Test System: E. COLI, Strain/Indicator: WP2 UVRA, Metabolic Activation: NONE, Method: STANDARD PLATE) was “active; positive”.
For CCCCN(CCC(=O)OC)N=O, the mutagenic call (Test System: AMES SALMONELLA TYPHIMURIUM, Strain/Indicator: TA1535, Metabolic Activation: RAT, LIVER, S-9, KC500 OR PHENOBARBITAL, Method: LIQUID SUSPENSION) was “active; positive”.
